The target in data set [1] is T1, human cardiac sodium channel, hNav1.5 (Homo sapiens, UniProt Q14524).
T1 construct: host or cells: HEK293
Kind of data set: Late INa screening assay (automated whole cell patch clamp, PatchXpress; late current generated with 10 μM Tefluthrin). Type of data set: cell-based. The settings on record: HEK293 cells expressing hNav1.5; for inhibition at 10 µM: 10 μM test compound, read-out: Late Ina % blk (10 μM test cmpd). The procedure:
The late sodium current (Late INa) and peak sodium current (Peak INa) assays were performed on an automated electrophysiology platform, PatchXpress 7000A (MDS Analytical Technologies, Sunnyvale, Calif.), which uses the whole cell patch clamp technique to measure currents through the cell membrane of up to 16 cells at a time. The assay uses an HEK293 (human embryonic kidney) cell line heterologously expressing the wild-type human cardiac sodium channel, hNav1.5, purchased from Millipore (Billerica, Mass.). No beta subunits were coexpressed with the Na channel alpha subunit. Cells were maintained with standard tissue culture procedures and stable channel expression was maintained with 400 μg/ml Geneticin in the culture medium. Cells isolated for use on PatchXpress were incubated for 5 minutes in Versene 1X and then for 2 minutes in 0.0125% Trypsin-EDTA (both at 37° C.) to ensure that 80-90% of the cells are single and not part of a cell cluster. Experiments were carried out at 24-27° C.
For both the Late INa and Peak INa assays, series resistance compensation was set to 50% and whole-cell compensation is performed automatically. Currents were low-pass filtered at 10 kHz and digitized at 31.25 kHz. Currents through open sodium channels were automatically recorded and stored in the DataXpress2 database (MDS Analytical Technologies, Sunnyvale, Calif.). Analysis is performed using DataXpress2 analysis software and data are compiled in Excel.
Compound stocks were routinely made in glass vials to 10 mM in dimethyl sulfoxide (DMSO). In some cases, when compounds were not soluble in DMSO, they were made in 100% ethanol. Stocks were sonicated as necessary. The extracellular solution for screening Late INa was composed of: 140 mM NaCl, 4 mM KCl, 1.8 mM CaCl2, 0.75 mM MgCl2, and 5 mM HEPES with pH adjusted to 7.4 using NaOH. The extracellular solution for screening Peak INa was composed of: 20 mM NaCl, 120 mM N-methyl-D glucamine, 4 mM KCl, 1.8 mM CaCl2, 0.75 mM MgCl2, and 5 mM HEPES with pH adjusted to 7.4 using HCl. The intracellular solution used to perfuse the inside of the cells for both the Late INa and Peak INa assays contained: 120 mM CsF, 20 mM CsCl, 5 mM EGTA, 5 mM HEPES and pH adjusted to 7.4 with CsOH. […] The 0Na extracellular solution used at the end of each experiment for the Late INa and Peak INa assays to measure baseline current contained: 140 mM N-methyl-D-glucamine; 4 mM KCl; 1.8 mM CaCl2; 0.75 mM MgCl2; 5 mM HEPES and pH was adjusted to 7.4 with HCl.
For the Late INa assay, sodium channels were activated every 10 seconds (0.1 Hz) by depolarizing the cell membrane to −20 mV for 250 milliseconds (ms) from a holding potential of −120 mV. In response to a −20 mV voltage step, typical Nav1.5 sodium currents activate rapidly to a peak negative current and then inactivate nearly completely within 3-4 ms.
All compounds were tested to determine their activity in blocking the late sodium current. Late INa current was generated by adding 10 μM Tefluthrin (pyrethroid) to the extracellular solution while recording Na currents.
In general terms: In patch-clamp work, channel activity is measured electrically.

For a further data set, the target named is T2, hERG potassium channel (Homo sapiens, UniProt Q12809).
T2 construct: expressed in transfected cells; host or cells: CHO (Chinese Hamster Ovary)
T2 sequence (Q12809 whole entry): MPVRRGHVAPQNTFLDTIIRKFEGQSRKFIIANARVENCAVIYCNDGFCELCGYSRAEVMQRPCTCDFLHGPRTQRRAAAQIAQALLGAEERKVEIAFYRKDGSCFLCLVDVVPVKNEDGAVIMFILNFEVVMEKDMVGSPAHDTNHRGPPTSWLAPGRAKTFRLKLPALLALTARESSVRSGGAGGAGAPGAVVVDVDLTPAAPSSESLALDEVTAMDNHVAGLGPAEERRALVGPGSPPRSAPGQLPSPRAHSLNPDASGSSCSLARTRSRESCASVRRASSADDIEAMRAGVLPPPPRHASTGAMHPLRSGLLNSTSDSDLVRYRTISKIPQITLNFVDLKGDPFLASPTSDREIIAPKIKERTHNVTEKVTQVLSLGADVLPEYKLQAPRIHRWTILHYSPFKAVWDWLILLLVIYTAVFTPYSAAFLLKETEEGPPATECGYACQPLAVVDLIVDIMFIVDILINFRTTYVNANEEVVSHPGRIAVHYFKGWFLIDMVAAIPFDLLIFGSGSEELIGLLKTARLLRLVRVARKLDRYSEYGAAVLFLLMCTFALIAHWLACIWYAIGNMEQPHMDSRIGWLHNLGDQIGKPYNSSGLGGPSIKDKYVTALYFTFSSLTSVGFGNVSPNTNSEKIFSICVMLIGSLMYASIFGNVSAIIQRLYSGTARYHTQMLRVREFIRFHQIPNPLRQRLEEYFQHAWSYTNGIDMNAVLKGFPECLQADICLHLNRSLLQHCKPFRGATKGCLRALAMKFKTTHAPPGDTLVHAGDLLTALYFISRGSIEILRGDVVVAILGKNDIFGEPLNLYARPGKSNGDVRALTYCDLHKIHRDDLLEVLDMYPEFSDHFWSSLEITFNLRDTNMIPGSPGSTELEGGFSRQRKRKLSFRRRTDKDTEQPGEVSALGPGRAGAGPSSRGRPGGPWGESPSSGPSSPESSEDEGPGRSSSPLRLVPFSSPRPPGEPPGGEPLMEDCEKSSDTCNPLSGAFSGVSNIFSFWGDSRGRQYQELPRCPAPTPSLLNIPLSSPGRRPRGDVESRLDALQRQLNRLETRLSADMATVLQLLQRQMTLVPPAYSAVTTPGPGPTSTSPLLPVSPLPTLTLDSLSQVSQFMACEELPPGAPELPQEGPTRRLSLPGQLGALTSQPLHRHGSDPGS
In words: hERG screening assay (PatchXpress automated patch clamp, CHO cell line). In kind it is cell-based. The settings on record: CHO cells. The procedure: Compounds were screened to test their activity in blocking the hERG potassium channel. The hERG channel is heterologously expressed in a CHO (Chinese Hamster Ovary) cell line. Cells were maintained with standard tissue culture procedures and stable channel expression is maintained with 500 μg/ml G418 in the culture medium. Cells were harvested for testing on the PatchXpress automated patch clamp with Accumax (Innovative Cell Technologies, San Diego, Calif.) to isolate single cells.
The following solutions were used for electrophysiological recordings. The external solution contains: 2 mM CaCl2; 2 mM MgCl2; 4 mM KCl; 150 mM NaCl; 10 mM Glucose; 10 mM HEPES (pH 7.4 with 1M NaOH, osmolarity). The internal solution contained: 140 mM KCl, 10 mM MgCl2, 6 mM EGTA, 5 mM HEPES, 5 mM ATP (pH adjusted to 7.25 with KOH).
hERG channels are activated when the voltage is stepped to +20 mV from the −80 mV holding potential. During a 5 second step at +20 mV, the channels activate and then largely inactivate, so the currents are relatively small. Upon returning to −50 mV from +20 mV, hERG currents transiently become much larger as inactivation is rapidly removed and then the channel closes. The first step to −50 mV for 300 ms is used as a baseline for measuring the peak amplitude during the step to −50 mV after channel activation. The peak current at −50 mV was measured both under control conditions and after addition of compound.
All compounds were prepared as 10 mM DMSO stocks in glass vials. Stock solutions were mixed by vigorous vortexing and sonication for about 2 minutes at room temperature. For testing, compounds were diluted in glass vials using an intermediate dilution step in pure DMSO and then further diluted to working concentrations in external solution. Dilutions were prepared no longer than 20 minutes before use.
After achieving the whole-cell configuration, cells were monitored for 90 seconds to assess stability and washed with external solution for 66 seconds. The voltage protocol described above was then applied to the cells every 12 seconds and throughout the whole procedure. Only cells with stable recording parameters and meeting specified health criteria were allowed to enter the compound addition procedure.
External solution containing 0.1% DMSO (vehicle) was applied to the cells first to establish the control peak current amplitude. After allowing the current to stabilize for 3 to 5 minutes, 1 μM and then 10 μM test compounds was applied. Each compound concentration was added 4 times and cells were kept in test solution until the effect of the compound reaches steady state or for a maximum of 12 minutes. After addition of test compound, a positive control (1 μM Cisapride) was added and must block >95% of the current for the experiment to be considered valid. Washout in the external solution compartment was performed until the recovery of the current reaches steady state. Data were analyzed using DataXpress, Clampfit (Molecular Devices, Inc., Sunnyvale) and Origin 7 (Originlab Corp.)
(In general: The hERG channel carries a current that helps repolarise heart muscle cells.)

T1 sequence (Q14524 whole entry): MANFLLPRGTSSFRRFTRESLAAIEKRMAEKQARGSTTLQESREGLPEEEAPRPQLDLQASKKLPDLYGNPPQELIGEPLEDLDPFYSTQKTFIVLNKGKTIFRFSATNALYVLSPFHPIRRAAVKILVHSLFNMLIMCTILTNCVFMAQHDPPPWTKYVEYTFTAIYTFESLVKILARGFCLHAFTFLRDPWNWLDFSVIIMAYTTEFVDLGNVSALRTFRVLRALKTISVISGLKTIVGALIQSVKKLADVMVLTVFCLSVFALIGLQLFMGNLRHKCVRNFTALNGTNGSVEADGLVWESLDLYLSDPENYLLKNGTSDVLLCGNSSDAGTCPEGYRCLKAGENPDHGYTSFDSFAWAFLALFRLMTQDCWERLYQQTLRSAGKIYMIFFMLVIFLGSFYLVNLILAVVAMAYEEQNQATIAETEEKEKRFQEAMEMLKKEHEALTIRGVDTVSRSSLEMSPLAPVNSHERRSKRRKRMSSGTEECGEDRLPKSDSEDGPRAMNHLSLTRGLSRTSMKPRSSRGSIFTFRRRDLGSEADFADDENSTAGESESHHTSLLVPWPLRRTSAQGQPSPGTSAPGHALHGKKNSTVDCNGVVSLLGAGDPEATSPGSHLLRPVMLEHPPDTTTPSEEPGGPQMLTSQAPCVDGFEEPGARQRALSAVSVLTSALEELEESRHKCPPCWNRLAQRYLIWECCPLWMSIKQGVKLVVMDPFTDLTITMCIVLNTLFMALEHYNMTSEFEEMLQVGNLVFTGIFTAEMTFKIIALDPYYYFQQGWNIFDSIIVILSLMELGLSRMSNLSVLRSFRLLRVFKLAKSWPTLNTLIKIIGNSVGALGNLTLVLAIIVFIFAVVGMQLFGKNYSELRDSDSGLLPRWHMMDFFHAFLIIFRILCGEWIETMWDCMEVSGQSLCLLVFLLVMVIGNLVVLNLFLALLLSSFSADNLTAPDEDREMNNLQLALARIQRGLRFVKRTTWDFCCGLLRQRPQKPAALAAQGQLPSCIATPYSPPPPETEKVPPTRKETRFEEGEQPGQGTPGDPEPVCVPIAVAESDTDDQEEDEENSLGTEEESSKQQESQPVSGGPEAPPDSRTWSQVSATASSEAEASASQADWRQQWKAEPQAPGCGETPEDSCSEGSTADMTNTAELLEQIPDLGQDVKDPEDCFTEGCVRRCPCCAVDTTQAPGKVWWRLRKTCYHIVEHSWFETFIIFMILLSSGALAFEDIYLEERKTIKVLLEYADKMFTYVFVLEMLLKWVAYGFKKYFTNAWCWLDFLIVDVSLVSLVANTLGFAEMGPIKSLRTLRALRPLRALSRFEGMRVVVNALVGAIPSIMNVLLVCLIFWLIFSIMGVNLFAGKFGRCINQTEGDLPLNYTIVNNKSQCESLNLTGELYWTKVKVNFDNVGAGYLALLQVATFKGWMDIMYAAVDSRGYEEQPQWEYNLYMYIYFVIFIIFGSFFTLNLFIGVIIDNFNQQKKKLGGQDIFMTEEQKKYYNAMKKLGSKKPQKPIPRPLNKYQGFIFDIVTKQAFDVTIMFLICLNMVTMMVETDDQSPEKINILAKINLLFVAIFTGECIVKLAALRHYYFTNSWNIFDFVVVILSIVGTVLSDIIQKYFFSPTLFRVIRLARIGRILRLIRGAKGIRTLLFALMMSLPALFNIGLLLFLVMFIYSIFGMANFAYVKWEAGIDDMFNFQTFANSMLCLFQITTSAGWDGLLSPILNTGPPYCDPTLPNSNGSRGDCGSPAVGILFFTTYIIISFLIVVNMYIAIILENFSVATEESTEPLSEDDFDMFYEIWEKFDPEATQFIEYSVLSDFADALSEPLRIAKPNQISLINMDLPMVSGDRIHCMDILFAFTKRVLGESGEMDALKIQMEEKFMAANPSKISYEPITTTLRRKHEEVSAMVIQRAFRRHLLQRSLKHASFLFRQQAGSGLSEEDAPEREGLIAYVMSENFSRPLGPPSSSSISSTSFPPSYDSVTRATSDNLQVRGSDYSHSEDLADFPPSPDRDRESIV

Consider `Cc1nc2ccccc2c(-c2ccccc2)c1C(=O)OCc1ccccc1` [PT-001, benzyl 2-methyl-4-phenylquinoline-3-carboxylate], for which the inhibition at 10 µM in data set [1] is 78.3%.

For `Cc1nc2ccc(Cl)cc2c(-c2ccccc2)c1C(=O)OC(C)(C)C` [PT-002, Tert-butyl 6-chloro-2-methyl-4-phenylquinoline-3-carboxylate], in data set [1], the inhibition at 10 µM amounted to 61.1%.

In the case of `Cc1nc2ccc(Cl)cc2c(-c2ccccc2)c1C(=O)NCc1ccc(F)cc1` [PT-003, 6-chloro-N-(4-fluorobenzyl)-2-methyl-4-phenylquinoline-3-carboxamide], the inhibition at 10 µM in data set [1] was 26.3%.

For `N#Cc1c(N)nc2ccc(Cl)cc2c1-c1ccccc1` [PT-004, 2-amino-6-chloro-4-phenylquinoline-3-carbonitrile], in data set [1], the inhibition at 10 µM turned out to be 15.2%.

In the case of `CCOC(=O)c1c(CCl)nc2ccc(Cl)cc2c1-c1ccccc1` [PT-006, ethyl 6-chloro-2-(chloromethyl)-4-phenylquinoline-3-carboxylate], in data set [1], the inhibition at 10 µM is 48.8%.

Regarding `CCOC(=O)c1c(CN2C(=O)c3ccccc3C2=O)nc2ccc(Cl)cc2c1-c1ccccc1` [PT-007, ethyl 6-chloro-2-[(1,3-dioxo-1,3-dihydro-2H-isoindol-2-yl)methyl]-4-phenylquinoline-3-carboxylate], in data set [1], the inhibition at 10 µM was 24%.

For the compound `CCOC(=O)c1c(Cn2ccnc2)nc2ccc(Cl)cc2c1-c1ccccc1` [PT-008, ethyl 6-chloro-2-(1H-imidazol-1-ylmethyl)-4-phenylquinoline-3-carboxylate], the “hERG Patch Clamp hERG % blk (1 μm test cmpd)” value on hERG potassium channel (1 μm test compound) was 43.0%. Moreover, on hERG potassium channel (10 μm test compound), the “hERG Patch Clamp hERG % blk (10 μm test cmpd)” value is 94.5%. For the same compound, the inhibition at 10 µM in data set [1] turned out to be 41.1%.

`CCOC(=O)c1c(COc2ccc(Cl)cc2OC)nc2ccc(Cl)cc2c1-c1ccccc1` [PT-011, ethyl 6-chloro-2-[(4-chloro-2-methoxyphenoxy)methyl]-4-phenylquinoline-3-carboxylate]: in data set [1], the inhibition at 10 µM is 18.1%.

In the case of `Cc1nc2ccc(Cl)cc2c(-c2ccccc2)c1C(=O)N1CCCCC1` [PT-013, (6-chloro-2-methyl-4-phenylquinolin-3-yl)(piperidin-1-yl)methanone], the inhibition at 10 µM in data set [1] came to 30.2%.

Regarding `Cc1nc2ccc(Cl)cc2c(-c2ccccc2)c1C(=O)O[C@@H](C)c1ccccc1` [PT-014, (1S)-1-phenylethyl 6-chloro-2-methyl-4-phenylquinoline-3-carboxylate], the inhibition at 10 µM in data set [1] stood at 36.1%.

For `Cc1nc2ccc(Cl)cc2c(-c2ccccc2)c1C(=O)O[C@H](C)c1ccccc1` [PT-015, (1R)-1-phenylethyl 6-chloro-2-methyl-4-phenylquinoline-3-carboxylate], the inhibition at 10 µM in data set [1] came to 37%.

In the case of `Cc1nc2ccc(Cl)cc2c(-c2ccccc2)c1C(=O)OCc1ccc(Cn2cccn2)cc1` [PT-018, 4-(1H-pyrazol-1-ylmethyl)benzyl 6-chloro-2-methyl-4-phenylquinoline-3-carboxylate], the inhibition at 10 µM in data set [1] was found to be 54.5%.

On to `Cc1nc2ccc(Cl)cc2c(-c2ccccc2Cl)c1C(=O)OC(C)(C)C` [PT-020, Tert-butyl 6-chloro-4-(2-chlorophenyl)-2-methylquinoline-3-carboxylate], for which the inhibition at 10 µM in data set [1] was 32.9%.

For the compound `CCOC(=O)c1c(C)nc2ccc(Cl)cc2c1-c1ccccc1Cl` [PT-021, ethyl 6-chloro-4-(2-chlorophenyl)-2-methylquinoline-3-carboxylate], the inhibition at 10 µM in data set [1] was found to be 70.2%.

For `Cc1nc2ccc(Cl)cc2c(-c2ccccc2F)c1C(=O)OC(C)(C)C` [PT-022, Tert-butyl 6-chloro-4-(2-fluorophenyl)-2-methylquinoline-3-carboxylate], the inhibition at 10 µM in data set [1] came to 46.9%.

Take `Cc1nc2ccc(Cl)cc2c(-c2ccccc2)c1C(C)O` (stereo not shown) [PT-023, 1-(6-chloro-2-methyl-4-phenylquinolin-3-yl)ethanol]: in data set [1], the inhibition at 10 µM was found to be 29.8%.

In the case of `CCOC(=O)c1c(CN(C)C)nc2ccc(Cl)cc2c1-c1ccccc1` [PT-024, ethyl 6-chloro-2-[(dimethylamino)methyl]-4-phenylquinoline-3-carboxylate], in data set [1], the inhibition at 10 µM was 57.8%.

On to `COC(=O)c1c(C)nc2ccccc2c1C` [PT-025, methyl 2,4-dimethylquinoline-3-carboxylate], for which, in data set [1], the inhibition at 10 µM was 26.6%.

As to `CCOCc1nc2ccccc2c(C)c1C(=O)OCC` [PT-026, ethyl 2-(ethoxymethyl)-4-methylquinoline-3-carboxylate], in data set [1], the inhibition at 10 µM stood at 23.4%.

Regarding `Cc1nc2ccc(Cl)cc2c(-c2ccccc2Cl)c1C(=O)OCc1ccccc1Br` [PT-027, 2-bromobenzyl 6-chloro-4-(2-chlorophenyl)-2-methylquinoline-3-carboxylate], in data set [1], the inhibition at 10 µM is 45.3%.

Turning to `Cc1nc2ccccc2c(C)c1C(=O)OCc1ccccc1Br` [PT-028, 2-bromobenzyl 2,4-dimethylquinoline-3-carboxylate], the “Late Ina % blk (1 μM test cmpd)” value in data set [1] (1 μM test compound) came out at 39.2%. Also, in data set [1], the inhibition at 10 µM was 82.4%.

Take `CCOC(=O)c1c(C)nc2ccc(Cl)cc2c1-c1ccccc1` [PT-029, ethyl 6-chloro-2-methyl-4-phenylquinoline-3-carboxylate]: the inhibition at 10 µM in data set [1] amounted to 70.2%.

Consider `CCOC(=O)c1c(C)nc2ccc(Cl)cc2c1-c1ccccc1F` [PT-030, ethyl 6-chloro-4-(2-fluorophenyl)-2-methylquinoline-3-carboxylate], for which, in data set [1], the inhibition at 10 µM was found to be 55.4%.

As to `Cc1nc2ccccc2c(C)c1-c1nnc(C(C)(C)c2ccc(Cl)cc2)o1` [PT-031, 3-{5-[2-(4-chlorophenyl)propan-2-yl]-1,3,4-oxadiazol-2-yl}-2,4-dimethylquinoline], in data set [1], the inhibition at 10 µM came to 64.4%.

For `Cc1nc2ccc(Cl)cc2c(C)c1C(=O)OCc1ccccc1Br` [PT-032, 2-bromobenzyl 6-chloro-2,4-dimethylquinoline-3-carboxylate], the inhibition at 10 µM in data set [1] was determined as 82.4%.

The values above are taken from patent US8664399B2, “Substituted heterocyclic compounds as ion channel modulators” (Gilead Sciences, Inc., priority 2008, dated 2014).
